Common to all, as to assay type: biochemical
What all share (details): HeLa S3 lysate, sfGFP/mCherry ratio, 2 hrs at 30° C.

One assay relates to MYC. The assay is described as follows: In vitro transcription-translation (IVTT) assay, MYC reporter. A digest of the protocol:
(§1)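 Reporter: mCherry, P2A, then 3×FLAG-target peptide-sfGFP fusion, IRES-initiated; HeLa S3 lysate IVTT; cpd dilutions 30 μM−0.1 μM half-log in 100% DMSO (dilution-plate conc); DNA added last; 2 h, 30° C; PBS quench.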

A further assay concerns ALK. The assay is described as follows: In vitro transcription-translation (IVTT) assay, ALK reporter. The gist of the method: as §1
The subject of another assay is KRAS G12D. The assay is described as follows: In vitro transcription-translation (IVTT) assay, KRAS G12D reporter. The gist of the method:
as §1

Counter-ions that a name gives are not always drawn.

For the compound `COc1ccc(C[C@H]2NC[C@H](O)[C@H]2OC(=O)NCCN2CC3(CNC3)C2)cc1` [V187623, (2R,3S,4S)-4-hydroxy-2-[(4-methoxyphenyl)methyl]pyrrolidin-3-yl N-(2-{2,6-diazaspiro [3.3]heptan-2-yl}ethyl)carbamate], the IC50 with MYC was above 30 µM; with ALK, 20 to 30 µM; in the assay on KRAS G12D it was above 30 µM.
As for `COc1ccc(C[C@H]2NC[C@H](O)[C@H]2OC(=O)Nc2nsc(C)n2)cc1` [V187652, (2R,3S,4S)-4-hydroxy-2-[(4-methoxyphenyl)methyl]pyrrolidin-3-yl N-(5-methyl-1,2,4-thiadiazol-3-yl)carbamate; trifluoroacetic acid], the IC50 in the assay with MYC, in the assay on ALK and in the assay with KRAS G12D was above 30 µM in each case.
`COc1ccc(C[C@H]2NC[C@H](O)[C@H]2OC(=O)NCCN2CCC2)cc1` [V187566, (2R,3S,4S)-4-hydroxy-2-[(4-methoxyphenyl)methyl]pyrrolidin-3-yl N-[2-(azetidin-1-yl)ethyl]carbamate; trifluoroacetic acid]: the IC50 in the assay on MYC was above 30 µM; in the assay on ALK, 10 to 20 µM; in the assay with KRAS G12D, above 30 µM.
On to `CCN(CC)CCOCCNC(=O)O[C@@H]1[C@@H](O)CN[C@@H]1Cc1ccc(OC)cc1` [V187625, (2R,3S,4S)-4-hydroxy-2-[(4-methoxyphenyl)methyl]pyrrolidin-3-yl N-{2-[2-(diethylamino)ethoxy]ethyl}carbamate; trifluoroacetic acid], for which the IC50 with MYC, with ALK and with KRAS G12D was above 30 µM in each case.
As to `CCN(CC)CCCCNC(=O)O[C@@H]1[C@@H](O)CN[C@@H]1Cc1ccc(OC)cc1` [V187385, (2R,3S,4S)-4-hydroxy-2-[(4-methoxyphenyl)methyl]pyrrolidin-3-yl N-[4-(diethylamino)butyl]carbamate; trifluoroacetic acid], the IC50 is 10 to 20 µM in the assay with MYC, below 10 µM in the assay with ALK and 20 to 30 µM in the assay on KRAS G12D.
The corresponding values for `COc1ccc(C[C@H]2NC[C@H](O)[C@H]2OC(=O)NCCCOCC(C)C)cc1` [V187437, (2R,3S,4S)-4-hydroxy-2-[(4-methoxyphenyl)methyl]pyrrolidin-3-yl N-[3-(2-methylpropoxy)propyl]carbamate] are 10 to 20 µM, below 10 µM and 20 to 30 µM.
For `CCN(Cc1ccccc1)Cc1nnc(NC(=O)O[C@@H]2[C@@H](O)CN[C@@H]2Cc2ccc(OC)cc2)s1` [V187597, (2R,3S,4S)-4-hydroxy-2-[(4-methoxyphenyl)methyl]pyrrolidin-3-yl N-(5-{[benzyl(ethyl)amino]methyl}-1,3,4-thiadiazol-2-yl)carbamate], the half-maximal inhibitory concentration (IC50) with MYC, with ALK and with KRAS G12D was above 30 µM each time.
Take `COc1ccc(C[C@@H]2NC[C@@H](O)[C@H]2OC(=O)NCCN(Cc2c[nH]cn2)C(=O)C2CCC2)cc1` [V187540, (2S,3S,4R)-4-hydroxy-2-[(4-methoxyphenyl)methyl]pyrrolidin-3-yl N-{2-[1-cyclobutyl-N-(1H-imidazol-4-ylmethyl)formamido]ethyl}carbamate]: the values for the IC50 with MYC, in the assay on ALK and in the assay with KRAS G12D were above 30 µM, 10 to 20 µM and above 30 µM, respectively.
For the compound `COc1ccc(C[C@@H]2NC[C@@H](O)[C@H]2OC(=O)NCCN(CCC(N)=O)Cc2c[nH]cn2)cc1` [V187539, (2S,3S,4R)-4-hydroxy-2-[(4-methoxyphenyl)methyl]pyrrolidin-3-yl N-{2-[(2-carbamoylethyl)(1H-imidazol-4-ylmethyl)amino]ethyl}carbamate; trifluoroacetic acid], the values for the IC50 in the assay with MYC, in the assay on ALK and in the assay on KRAS G12D were below 10 µM, below 10 µM and 20 to 30 µM, respectively.
In the case of `COc1ccc(C[C@H]2NC[C@H](O)[C@H]2OC(=O)Nc2cc(C)[nH]n2)cc1` [V187658, (2R,3S,4S)-4-hydroxy-2-[(4-methoxyphenyl)methyl]pyrrolidin-3-yl N-(5-methyl-1H-pyrazol-3-yl)carbamate; trifluoroacetic acid], the IC50 with MYC, in the assay with ALK and with KRAS G12D was above 30 µM each time.
On to `COc1ccc(C[C@H]2NC[C@H](O)[C@H]2OC(=O)NCCN2C[C@@H](O)[C@H](NC(C)=O)C2)cc1` [V187578, (2R,3S,4S)-4-hydroxy-2-[(4-methoxyphenyl)methyl]pyrrolidin-3-yl N-{2-[(3R,4R)-3-acetamido-4-hydroxypyrrolidin-1-yl]ethyl}carbamate], for which the IC50 in the assay on MYC is above 30 µM; in the assay with ALK, 20 to 30 µM; in the assay on KRAS G12D, above 30 µM.
With `COc1ccc(C[C@H]2NC[C@H](O)[C@H]2OC(=O)NCC2CCSCC2)cc1` [V187516, (2R,3S,4S)-4-hydroxy-2-[(4-methoxyphenyl)methyl]pyrrolidin-3-yl N-(thian-4-ylmethyl) carbamate], the IC50 in the assay with MYC was below 10 µM; with ALK, below 10 µM; in the assay with KRAS G12D it was 10 to 20 µM.
Turning to `COc1ccc(C[C@H]2NC[C@H](O)[C@H]2OC(=O)NCCN2CC(O)(CNC(C)=O)C2)cc1` [V187582, (2R,3S,4S)-4-hydroxy-2-[(4-methoxyphenyl)methyl]pyrrolidin-3-yl N-{2-[3-(acetamidomethyl)-3-hydroxyazetidin-1-yl]ethyl}carbamate hydrochloride], the IC50 in the assay with MYC was above 30 µM; in the assay with ALK it was 10 to 20 µM; in the assay with KRAS G12D, above 30 µM.
Consider `COc1ccc(C[C@H]2NC[C@H](O)[C@H]2OC(=O)NNC(=O)Cc2ccccc2)cc1` [V187741, N′-({[(2R,3S,4S)-4-hydroxy-2-[(4-methoxyphenyl)methyl]pyrrolidin-3-yl]oxy}carbonyl)-2-phenylacetohydrazide; trifluoroacetic acid], for which the IC50 was below 10 µM with MYC, below 10 µM with ALK and 10 to 20 µM in the assay with KRAS G12D.
As to `COc1ccc(C[C@H]2NC[C@H](O)[C@H]2OC(=O)NCCN2C[C@@H](NC(=O)C3CC(F)(F)C3)[C@H](NC(=O)C3CC(F)(F)C3)C2)cc1` [V187554], the IC50 in the assay with MYC, in the assay with ALK and in the assay on KRAS G12D was above 30 µM in each case.
On to `COc1ccc(C[C@H]2NC[C@H](O)[C@H]2OC(=O)NCCN2CCN(Cc3ccccc3)CC2)cc1` [V187465, (2R,3S,4S)-4-hydroxy-2-[(4-methoxyphenyl)methyl]pyrrolidin-3-yl N-[2-(4-benzylpiperazin-1-yl)ethyl]carbamate], for which the IC50 in the assay on MYC was below 10 µM; with ALK it was below 10 µM; with KRAS G12D it was 10 to 20 µM.
As to `CCCCN(CCCC)CCCNC(=O)O[C@@H]1[C@@H](O)CN[C@@H]1Cc1ccc(OC)cc1` [V187386, (2R,3S,4S)-4-hydroxy-2-[(4-methoxyphenyl)methyl]pyrrolidin-3-yl N-[3-(dibutylamino)propyl]carbamate], the IC50 in the assay on MYC, in the assay on ALK and with KRAS G12D was above 30 µM in each case.
In the case of `COc1ccc(C[C@H]2NC[C@H](O)[C@H]2OC(=O)NCCCCN)cc1` [V187592, (2R,3S,4S)-4-hydroxy-2-[(4-methoxyphenyl)methyl]pyrrolidin-3-yl N-(4-aminobutyl)carbamate; trifluoroacetic acid], the IC50 with MYC, in the assay with ALK and in the assay on KRAS G12D was below 10 µM throughout.
Consider `COc1ccc(C[C@H]2NC[C@H](O)[C@H]2OC(=O)NCC[C@H]2CNCCN2Cc2ccccc2)cc1` [V187568, (2R,3S,4S)-4-hydroxy-2-[(4-methoxyphenyl)methyl]pyrrolidin-3-yl N-{2-[(2S)-1-benzylpiperazin-2-yl]ethyl}carbamate], for which the IC50 was above 30 µM in the assay on MYC, 20 to 30 µM in the assay with ALK and above 30 µM in the assay on KRAS G12D.
As to `COc1ccc(C[C@H]2NC[C@H](O)[C@H]2OC(=O)NC[C@@H]2NC(=O)CNC2=O)cc1` [V187381, (2R,3S,4S)-4-hydroxy-2-[(4-methoxyphenyl)methyl]pyrrolidin-3-yl N-{[(2S)-3,6-dioxopiperazin-2-yl]methyl}carbamate], the IC50 with MYC, in the assay on ALK and in the assay on KRAS G12D was above 30 µM in each case.
In the case of `COc1ccc(C[C@H]2NC[C@H](O)[C@H]2OC(=O)NCCN2CC(O)C(F)(F)C2)cc1` (stereo partly drawn) [V187620], the IC50 with MYC is 10 to 20 µM; in the assay on ALK, below 10 µM; in the assay on KRAS G12D, 20 to 30 µM.
For the compound `COc1ccc(C[C@H]2NC[C@H](O)[C@H]2OC(=O)NCCN2C[C@@H](O)[C@H](O)C2)cc1` [V187577, (2R,3S,4S)-4-hydroxy-2-[(4-methoxyphenyl)methyl]pyrrolidin-3-yl N-{2-[(3R,4R)-3,4-dihydroxypyrrolidin-1-yl]ethyl}carbamate], the IC50 in the assay with MYC is above 30 µM; in the assay on ALK, below 10 µM; in the assay on KRAS G12D it was 10 to 20 µM.
For `COCc1nnc(NC(=O)O[C@@H]2[C@@H](O)CN[C@@H]2Cc2ccc(OC)cc2)s1` [V187730, (2R,3S,4S)-4-hydroxy-2-[(4-methoxyphenyl)methyl]pyrrolidin-3-yl N-[5-(methoxymethyl)-1,3,4-thiadiazol-2-yl]carbamate], the concentration for half-maximal inhibition (IC50) in the assay on MYC, in the assay with ALK and in the assay with KRAS G12D was above 30 µM each time.
Take `COc1ccc(C[C@H]2NC[C@H](O)[C@H]2OC(=O)NCCN(C(C)C)C(C)C)cc1` [V187436, (2R,3S,4S)-4-hydroxy-2-[(4-methoxyphenyl)methyl]pyrrolidin-3-yl N-[2-(diisopropylamino)ethyl]carbamate]: the IC50 in the assay with MYC, in the assay on ALK and in the assay with KRAS G12D was above 30 µM in each case.
For the compound `COc1ccc(C[C@H]2NC[C@H](O)[C@H]2OC(=O)NCCN2C(=O)CNC2=O)cc1` [V187659, (2R,3S,4S)-4-hydroxy-2-[(4-methoxyphenyl)methyl]pyrrolidin-3-yl N-[2-(2,5-dioxoimidazolidin-1-yl)ethyl]carbamate; trifluoroacetic acid], the IC50 was 20 to 30 µM in the assay with MYC, below 10 µM with ALK and above 30 µM in the assay with KRAS G12D.

As a reminder, the IC50 is the point on the concentration scale where inhibition reaches its midpoint.
